Source: US20060052435A1, “Selective dopamin d3 receptor agonists for the treatment of sexual dysfunction” (priority 2001, published 2006)

How the values were obtained:
[1] = emesis in the chloralose anaesthetised dog; details: male, beagle, dog, in vivo, 3000 μg kg^−1
Experimental: (§1) Male beagles, 11-17 kg were used. Following an overnight fast, animals were anaesthetised with chloralose (80 mg kg^−1 i.v.), having first been injected with an anaesthetic dose of the short acting barbiturate, thiopentone (15 mg kg^−1 i.v.). Following tracheal intubation, which ensured a patent airway even during the expulsion phase of the emetic response, the left femoral vein and artery were cannulated for further administration of anaesthetic and for recording haemodynamic parameters, respectively. […] During the stabilisation period, respiratory rate was monitored to ensure that central respiratory centres were not deeply depressed, since the CNS efferent component of the emetic reflex is essentially conveyed via respiratory motor neurones. […] Animals were observed closely for 30 min post-dose and motor (e.g. swallowing, eye blinking, limb movements, changes in respiratory rate and depth, retching and vomiting) and haemodynamic changes noted and recorded. […] At the end of an experiment animals were sacrificed with an overdose of pentobarbitone.
(§2) Observations made on individual animals were used to determine the percentage of animals that retched when injected with a particular dose level of test compound. Percentage of animals retching was then used to construct a dose response curve and an ED50 value determined from the appropriate curve.

anaesthetised dog = assay: emesis in the chloralose anaesthetised dog
Experimental: as §1, §2

conscious rats = assay: conscious rat models of copulatory behaviour; details: in vivo
Experimental: All studies of sexual behaviour must be performed on adult rats (˜12 weeks of age/200 g weight). Sexual behaviour tests are performed under red light during the dark phase of the light/dark cycle starting at 2 h after lights off and videotaped for further analysis (observer presence can unfavourably alter sexual behaviour).
Males (N=8-10) are placed in a clear aquarium (or home cage) for at least 15 min acclimation period. An estrous female is introduced into the mating arena. The following information is recorded during the 45 min test: latency to begin mounting behaviour, latency to first intromission, latency to first ejaculation (calculated from first intromission), number of intromissions to ejaculation, number of mounts until ejaculation, and the number of ejaculations during the test period. Males are observed during a single 45 min test with an estrous WT female.
The rats are presented with a receptive female at […], i.e. every third day (having 2 clear days between presentations), until completing at least 6 days of baseline determination. By then, vigorous behaviour should be expected. Rats that display sluggish copulatory behaviour are used as a model of HSDD.
For all the sexual behaviour tests, the males are placed in an observation arena (50-60 cm diameter for rats). 3 to 4 minutes after placing the male in the arena, a receptive female (ovariectomised, bearing a 7 mm silastic implant of oestradiol benzoate gives the best results without complications) is introduced to the arena and the following parameters noted:
Mount Latency: time (in seconds) taken between introduction of female and first mount. A maximum time of 15 minutes (900 seconds) is allowed, and the test terminated if no mounts are recorded within that time. Mount latency is related to sexual drive/desire.
Intromission Latency: time (in seconds) taken between introduction of female and first intromission. A maximum time of 15 minutes (900 seconds) is allowed, and the test terminated if no intromissions are recorded within that time. Intromission latency is related to sexual drive/desire.
Copulatory effectsiveness:—no of intromissions/(no of mounts+intromissions). This acts as a measure of erectile function.
The test, in the rat, is carried out in a circular arena of 90 cm diameter surrounded by a 30 cm high wall (these dimensions would need to be adapted for mice). Two small cages with wire-mesh front (15×15 cm) are fixed into the wall such that the front of the cage is “flush” with the wall and the 2 cages are opposite each other. […] The difference in the percentage of time spent investigating male minus female is calculated, out of the total time spent investigating stimuli animals. […] Female rats would then be used intact and tested in late proestrous, as determined by vaginal smears. […]

## CCCN1CCO[C@H](c2cccc(O)c2)C1.Cl [Example 8, R-(−)-3-(4-Propylmorpholin-2-yl)phenol hydrochloride]
[1]
  concentration at 15 min: ~1000 nM
Anaesthetised dog; at 3000 μg/kg, emesis study
  free plasma concentration relative to the D3 EC50: approximately 270 fold
Anaesthetised dog; s.c., escalating doses 3-3000 μg kg^−1
  dose at which emesis was observed: > 3 mg/kg
Conscious rats
  copulatory behaviour and copulatory effectiveness in male rats: beneficially enhances
  mount latency and intromission latency in sluggish males (model of HSDD): reduces
  proceptive and receptive behaviours in female rats: beneficially enhances
  sexual desire in oestrogen primed ovarectomised animals (model of HSDD): restores
